For test [1], the target named is human GLP-1R (Homo sapiens, UniProt P43220, G168S). In words: CHO GLP-1R Clone H6 cAMP HTRF agonist assay (Assay 1, high receptor density). As to conditions: for EC50: CHO GLP-1R clone H6, cAMP HTRF, geometric mean; for Emax: CHO GLP-1R clone H6, arithmetic mean, relative to saturating GLP-1 (1 μM), read-out: Assay 1 Emax (%). The test is classed as cell-based. The method in brief: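 From replicate determinations, mean EC50 (geometric) and mean Emax (arithmetic) were derived and expressed to two significant figures.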

The target in test [2] is human GLP-1R (Homo sapiens, UniProt P43220, L260F). In words: CHO GLP-1R Clone C6 cAMP HTRF agonist assay (Assay 2, low receptor density). The format is cell-based. The following applies: for EC50: CHO GLP-1R clone C6, cAMP HTRF, geometric mean; for Emax: CHO GLP-1R clone C6, arithmetic mean, relative to saturating GLP-1 (1 μM). From the text:
In Table 5 and Table 6, assay data are presented to two (2) significant figures as the geometric mean (EC50s) and arithmetic mean (Emax) based on the number of replicates listed (Number). A blank cell means there was no data for that Example or the Emax was not calculated.

Molecules are shown by their SMILES.

human GLP-1R (Homo sapiens, UniProt P43220, G168S), sequence (P43220 24-463 G168S): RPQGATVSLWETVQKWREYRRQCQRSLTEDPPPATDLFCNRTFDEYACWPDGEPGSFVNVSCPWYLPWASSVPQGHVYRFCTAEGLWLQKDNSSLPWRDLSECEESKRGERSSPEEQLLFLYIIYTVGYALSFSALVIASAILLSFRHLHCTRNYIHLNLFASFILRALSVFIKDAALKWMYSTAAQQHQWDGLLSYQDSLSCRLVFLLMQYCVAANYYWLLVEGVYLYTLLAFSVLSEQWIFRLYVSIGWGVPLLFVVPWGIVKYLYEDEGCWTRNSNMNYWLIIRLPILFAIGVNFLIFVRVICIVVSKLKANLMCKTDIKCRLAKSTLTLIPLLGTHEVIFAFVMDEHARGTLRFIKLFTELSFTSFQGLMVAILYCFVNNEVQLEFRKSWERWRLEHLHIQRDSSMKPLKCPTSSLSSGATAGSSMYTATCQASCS
human GLP-1R (Homo sapiens, UniProt P43220, L260F), sequence (P43220 24-463 L260F): as the sequence (P43220 24-463 G168S) above, with S145G, L237F counted along it

In the case of `C[C@H]1CN(c2cccc(OCc3ccc(C#N)cc3F)n2)CCN1Cc1nc2ccc(C(=O)O)cc2n1Cc1cncn1C` [Compound 249B, 2-{[(2S)-4-{6-[(4-cyano-2-fluorobenzyl)oxy]pyridin-2-yl}-2-methylpiperazin-1-yl]methyl}-1-[(1-methyl-1H-imidazol-5-yl)methyl]-1H-benzimidazole-6-carboxylic acid], on human GLP-1R [1], the EC50 came out at 1.6 nM and the maximal effect (Emax) turned out to be 84%. In addition, at human GLP-1R [2], the 50% effective concentration (EC50) was 35 nM and the Emax came out at 78%.

The compound `COCCn1c(CN2CCN(c3cccc(OCc4ccc(Cl)cc4F)n3)C[C@H]2C)nc2ccc(C(=O)O)cc21` [Compound 356B, 2-{[(2R)-4-{6-[(4-chloro-2-fluorobenzyl)oxy]pyridin-2-yl}-2-methylpiperazin-1-yl]methyl}-1-(2-methoxyethyl)-1H-benzimidazole-6-carboxylic acid] gave an EC50 on human GLP-1R [1] of 100 nM. On human GLP-1R [2], this compound showed a concentration for a half-maximal effect (EC50) of 1100 nM and a maximal response (Emax) of 75%.

On to `C[C@H]1CN(c2cccc(OCc3ccc(C#N)cc3F)n2)CCN1Cc1nc2ccc(C(=O)O)cc2n1C[C@@H]1CCO1` [Compound 115B, 2-{[(2S)-4-{6-[(4-cyano-2-fluorobenzyl)oxy]pyridin-2-yl}-2-methylpiperazin-1-yl]methyl}-1-[(2S)-oxetan-2-ylmethyl]-1H-benzimidazole-6-carboxylic acid], for which, on human GLP-1R [1], the response was half-maximal at 0.95 nM (EC50) and the maximal response (Emax) stood at 92%. On human GLP-1R [2], this compound yielded an EC50 of 17 nM and a maximal response (Emax) of 120%.

Turning to `COC[C@@H]1C[C@H]1Cn1c(CN2CCC(c3cccc(OCc4ccc(Cl)cc4F)n3)CC2)nc2ccc(C(=O)O)cc21` [Compound 197B, 2-[(4-{6-[(4-chloro-2-fluorobenzyl)oxy]pyridin-2-yl}piperidin-1-yl)methyl]-1-{[(1R,2R)-2-(methoxymethyl)cyclopropyl]methyl}-1H-benzimidazole-6-carboxylic acid], at human GLP-1R [1], a half-maximal effect (EC50) was put at 8.1 nM and the Emax came out at 74%. At human GLP-1R [2], this compound returned a concentration for a half-maximal effect (EC50) of 220 nM and an Emax of 93%.

Turning to `COCCn1c(CN2CCC(c3cccc(OCc4ccc(C)cc4)n3)CC2)nc2ccc(C(=O)O)cc21` [Compound 217B, Ammonium 2-((4-(6-((4-Methylbenzyl)oxy)pyridin-2-yl)piperidin-1-yl)methyl)-1-(2-methoxyethyl)-1H-benzo[d]imidazole-6-carboxylate], on human GLP-1R [1], the midpoint of the response, the EC50, lay at 1.5 nM and the maximal effect (Emax) turned out to be 73%. At human GLP-1R [2], this compound had a concentration for a half-maximal effect (EC50) of 24 nM and a maximal response (Emax) of 91%.

In the case of `O=C(O)c1ccc2nc(CN3CCC(c4cccc(OCc5ccc(Cl)cc5F)n4)CC3)n(C[C@@H]3CCCO3)c2c1` [Compound 116B, 2-[(4-{6-[(4-chloro-2-fluorobenzyl)oxy]pyridin-2-yl}piperidin-1-yl)methyl]-1-[(2S)-tetrahydrofuran-2-ylmethyl]-1H-benzimidazole-6-carboxylic acid], at human GLP-1R [1], the EC50 came to 930 nM and the maximum response (Emax) was 86%. Besides, at human GLP-1R [2], the half-maximal effective concentration (EC50) came out at 9000 nM and the maximal response (Emax) came to 100%.

Consider `Cn1cncc1Cn1c(CN2CCN(c3cccc(OCc4ccc(Cl)cc4F)n3)CC2)nc2ccc(C(=O)O)cc21` [Compound 153B, 2-[(4-{6-[(4-chloro-2-fluorobenzyl)oxy]pyridin-2-yl}piperazin-1-yl)methyl]-1-[(1-methyl-1H-imidazol-5-yl)methyl]-1H-benzimidazole-6-carboxylic acid], for which, on human GLP-1R [1], the concentration giving a half-maximal response (EC50) stood at 24 nM and the Emax worked out at 76%. Besides, at human GLP-1R [2], the EC50 stood at 1200 nM and the Emax stood at 94%.

As for `C[C@H]1CN(c2cccc(OCc3ccc(Cl)cc3F)n2)CCN1Cc1nc2ccc(C(=O)O)cc2n1C[C@@H]1CCO1` [Compound 135B, 2-{[(2S)-4-{6-[(4-chloro-2-fluorobenzyl)oxy]pyridin-2-yl}-2-methylpiperazin-1-yl]methyl}-1-[(2S)-oxetan-2-ylmethyl]-1H-benzimidazole-6-carboxylic acid], at human GLP-1R [1], the EC50 worked out at 260 nM and the Emax was 88%. At human GLP-1R [2], this compound showed a 50% effective concentration (EC50) of 5600 nM and a maximal response (Emax) of 86%.

Take `COCCn1c(CN2CCN(c3cccc(OCc4ccc(Cl)cc4F)n3)CC2(C)C)nc2ccc(C(=O)O)cc21` [Compound 352B, 2-[(4-{6-[(4-chloro-2-fluorobenzyl)oxy]pyridin-2-yl}-2,2-dimethylpiperazin-1-yl)methyl]-1-(2-methoxyethyl)-1H-benzimidazole-6-carboxylic acid]: the figures for the half-maximal effective concentration (EC50) on human GLP-1R [1] and on human GLP-1R [2] were 46 nM and 1400 nM, respectively. Also, the results for the Emax at human GLP-1R [1] and on human GLP-1R [2] were 66% and 83%, respectively.

As to `COCCn1c(CN2CCN(c3cccc(OCc4ccc(Cl)cc4F)n3)C[C@@H]2C(C)C)nc2ccc(C(=O)O)cc21` [Compound 351B, 2-{[(2S)-4-{6-[(4-chloro-2-fluorobenzyl)oxy]pyridin-2-yl}-2-(propan-2-yl)piperazin-1-yl]methyl}-1-(2-methoxyethyl)-1H-benzimidazole-6-carboxylic acid], the figures for the 50% effective concentration (EC50) on human GLP-1R [1] and on human GLP-1R [2] were 5.2 nM and 120 nM, respectively. Besides, the values for the Emax at human GLP-1R [1] and at human GLP-1R [2] were 66% and 80%, respectively.

With `CN1CCCCC1Cn1c(CN2CCC(c3cccc(OCc4ccc(Cl)cc4F)n3)CC2)nc2ccc(C(=O)O)cc21` (centres unmarked) [Compound 285B, 2-[(4-{6-[(4-chloro-2-fluorobenzyl)oxy]pyridin-2-yl}piperidin-1-yl)methyl]-1-[(1-methylpiperidin-2-yl)methyl]-1H-benzimidazole-6-carboxylic acid], the figures for the concentration giving a half-maximal response (EC50) on human GLP-1R [1] and on human GLP-1R [2] were 21 nM and 200 nM, respectively. In addition, the results for the maximal effect (Emax) at human GLP-1R [1] and at human GLP-1R [2] were 82% and 81%, respectively.

In the case of `CC[C@H]1CN(c2cccc(OCc3ccc(Cl)cc3F)n2)CCN1Cc1nc2ccc(C(=O)O)cc2n1CCOC` [Compound 353B, 2-{[(2S)-4-{6-[(4-chloro-2-fluorobenzyl)oxy]pyridin-2-yl}-2-ethylpiperazin-1-yl]methyl}-1-(2-methoxyethyl)-1H-benzimidazole-6-carboxylic acid], on human GLP-1R [1], the response was half-maximal at 5.6 nM (EC50) and the maximal effect (Emax) worked out at 80%. For the same compound, at human GLP-1R [2], the concentration for a half-maximal effect (EC50) came to 200 nM and the Emax amounted to 89%.

For `Cc1cc(Cn2c(CN3CCC(c4cccc(OCc5ccc(Cl)cc5F)n4)CC3)nc3ccc(C(=O)O)cc32)[nH]n1` [Compound 333B, 2-[(4-{6-[(4-chloro-2-fluorobenzyl)oxy]pyridin-2-yl}piperidin-1-yl)methyl]-1-[(3-methyl-1H-pyrazol-5-yl)methyl]-1H-benzimidazole-6-carboxylic acid], on human GLP-1R [1], a half-maximal response (EC50) required 0.7 nM and the maximum response (Emax) worked out at 86%. At human GLP-1R [2], a half-maximal response (EC50) required 10 nM and the maximal response (Emax) was 89%.

Regarding `Cn1c(CN2CCC(c3cccc(OCc4cccc(F)c4F)n3)CC2)nc2ccc(C(=O)O)cc21` [Compound 227B, 2-[(4-{6-[(2,3-difluorobenzyl)oxy]pyridin-2-yl}piperidin-1-yl)methyl]-1-methyl-1H-benzimidazole-6-carboxylic acid], on human GLP-1R [1], the EC50 worked out at 4 nM and the Emax came out at 64%. Besides, at human GLP-1R [2], the EC50 turned out to be 48 nM and the maximal response (Emax) worked out at 79%.

Take `O=C(O)c1cc2c(cn1)nc(CN1CCC(c3cccc(OCc4ccc(Cl)cc4F)n3)CC1)n2C[C@@H]1CCO1` [Compound 203B, 2-[(4-{6-[(4-chloro-2-fluorobenzyl)oxy]pyridin-2-yl}piperidin-1-yl)methyl]-1-[(2S)-oxetan-2-ylmethyl]-1H-imidazo[4,5-c]pyridine-6-carboxylic acid]: at human GLP-1R [1], the 50% effective concentration (EC50) is over 15000 nM and the Emax came out at 98%. The compound also displayed an EC50 on human GLP-1R [2] of over 20000 nM.

With `CN1CCCC1CCn1c(CN2CCC(c3cccc(OCc4ccc(Cl)cc4F)n3)CC2)nc2ccc(C(=O)O)cc21` (centres unmarked) [Compound 284B, 2-[(4-{6-[(4-chloro-2-fluorobenzyl)oxy]pyridin-2-yl}piperidin-1-yl)methyl]-1-[2-(1-methylpyrrolidin-2-yl)ethyl]-1H-benzimidazole-6-carboxylic acid], on human GLP-1R [1], the half-maximal effective concentration (EC50) worked out at 18 nM and the maximum response (Emax) worked out at 82%. At human GLP-1R [2], this compound registered an EC50 of 270 nM and an Emax of 83%.

For the compound `C[C@H]1CN(c2cccc(OCc3ccc(F)cc3F)n2)CCN1Cc1nc2ccc(C(=O)O)cc2n1C[C@@H]1CCO1` [Compound 134B, 2-{[(2S)-4-{6-[(2,4-difluorobenzyl)oxy]pyridin-2-yl}-2-methylpiperazin-1-yl]methyl}-1-[(2S)-oxetan-2-ylmethyl]-1H-benzimidazole-6-carboxylic acid], on human GLP-1R [1], the response was half-maximal at 300 nM (EC50) and the maximal response (Emax) turned out to be 92%. Moreover, at human GLP-1R [2], a half-maximal effect (EC50) was put at 7700 nM and the maximal effect (Emax) came to 100%.

`COCCn1c(CN2CC[C@H](c3cccc(OCc4ccc(Cl)cc4F)n3)[C@@H](F)C2)nc2ccc(C(=O)O)cc21` (racemic) [Compound 189B, rac 2-{[(3S,4S)-4-{6-[(4-chloro-2-fluorobenzyl)oxy]pyridin-2-yl}-3-fluoropiperidin-1-yl]methyl}-1-(2-methoxyethyl)-1H-benzimidazole-6-carboxylic acid]: on human GLP-1R [1], the midpoint of the response, the EC50, lay at 68 nM and the Emax amounted to 77%. On human GLP-1R [2], this compound showed an EC50 of 1700 nM and an Emax of 110%.

Take `Cn1cncc1Cn1c(CN2CCN(c3cccc(OCc4ccc(C#N)cc4F)n3)CC2)nc2ccc(C(=O)O)cc21` [Compound 154B, 2-[(4-{6-[(4-cyano-2-fluorobenzyl)oxy]pyridin-2-yl}piperazin-1-yl)methyl]-1-[(1-methyl-1H-imidazol-5-yl)methyl]-1H-benzimidazole-6-carboxylic acid]: at human GLP-1R [1], a half-maximal response (EC50) required 6 nM and the maximal effect (Emax) is 80%. On human GLP-1R [2], a half-maximal response (EC50) required 78 nM and the Emax was determined as 88%.

The values above are taken from patent US20250235460A1, “COMBINATION THERAPY USING GLUCOSE-DEPENDENT INSULINOTROPIC POLYPEPTIDE RECEPTOR ANTAGONIST COMPOUNDS AND GLP-1 RECEPTOR AGONIST COMPOUNDS” (Pfizer Inc., priority 2024, published 2025).
